In series [1] the test system is Mus musculus. The series is described as follows: Protective activity against LPS induced sepsis in BALB/c mouse model of acute liver injury assessed as improvement in congested hepatic sinusoids at 1.25 to 5 mg/kg, IG administered once a day for 3 days followed by LPS stimulation for 12 hrs starting from 2 hrs post last dose by hematoxylin and eosin staining based analysis. The class given is functional, organism-based. The following applies: dose 1.25-5 mg/kg, time 86.0 hrs.

The target in series [2] is T1, Stimulator of interferon genes protein (Mus musculus) (UniProt Q3TBT3).
T1 sequence (whole entry): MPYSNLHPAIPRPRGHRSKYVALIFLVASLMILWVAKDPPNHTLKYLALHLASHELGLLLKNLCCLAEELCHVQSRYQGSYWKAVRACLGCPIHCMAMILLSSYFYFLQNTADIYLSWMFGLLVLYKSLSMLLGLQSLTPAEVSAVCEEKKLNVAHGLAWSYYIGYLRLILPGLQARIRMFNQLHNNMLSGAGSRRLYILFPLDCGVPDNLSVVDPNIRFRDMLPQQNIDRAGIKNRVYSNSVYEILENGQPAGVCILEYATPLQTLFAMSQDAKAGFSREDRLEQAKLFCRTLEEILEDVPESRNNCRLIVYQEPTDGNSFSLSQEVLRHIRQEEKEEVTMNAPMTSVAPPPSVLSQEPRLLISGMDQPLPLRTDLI
The series is described as follows: In vivo inhibition of STING in BALB/c mouse model of LPS induced sepsis assessed as inhibition of upregulation of phosphorylated p65 protein expression at 1.25 to 5 mg/kg, IG administered once a day for 3 days followed by LPS stimulation for 12 hrs starting from 2 hrs post last dose by Western blot analysis. In kind it is functional, organism-based. The following applies: dose 1.25-5 mg/kg, time 86.0 hrs. (In western blotting, separated proteins are transferred to a membrane and probed.)

A short description of series [3]: Tmax in Sprague-Dawley rat administered intragastrically. In kind it is ADME. The following applies: in vivo, po, route ig.
Series [4] addresses T1, Stimulator of interferon genes protein (Mus musculus). The series is described as follows: Binding affinity to STING in mouse RAW264.7 cells assessed as thermal stabilization at 46 degree C measured for 8 hrs by cellular thermal shift assay. In kind it is cell-based. The following applies: dose 0-20 µM.
In series [5] the test system is RAW264.7. The series is described as follows: Anti inflammatory activity in LPS-induced mouse RAW264.7 cells assessed as suppression of IFN- beta levels at 0.5 to 2 uM preincubated with compound for 2 hrs followed by LPS stimulation for 6 hrs by ELISA method. In kind it is functional, cell-based. The following applies: dose 0.5-2 µM, time 8.0 hrs. (In an ELISA, binding on a coated surface is turned into a signal by an enzyme label.)

In series [6] the test system is Mus musculus. The series is described as follows: Anti-sepsis activity against BALB/c mouse model of LPS induced sepsis assessed as reduction in STING mRNA expression in liver at 1.25 to 5 mg/kg, IG administered once a day for 3 days followed by LPS stimulation for 12 hrs starting from 2 hrs post last dose by qRT-PCR analysis. The following applies: dose 1.25-5 mg/kg, time 86.0 hrs. In kind it is functional, organism-based. For orientation: In qPCR the cycle at which signal appears reflects the starting amount.

Structures are written as SMILES. Activity calls are given as the source filed them. The rule behind the calls is not given here.

Take `C=CCONC(=O)CCSSCCC(=O)O[C@@H]1CC[C@@]2(C)[C@@H](CC[C@@]3(C)[C@H]2[C@H](O)C[C@H]2/C(=C(\CCC=C(C)C)C(=O)OCc4ccccc4)[C@@H](OC(C)=O)C[C@@]23C)[C@@H]1C`: the result in series [1], in series [5] and in series [6] was Active. The inhibition result in series [2] is “Active”. The time of peak concentration (Tmax) in series [3] turned out to be 1 h. Besides, the Activity entry in series [4] is “Dose-Dependent Effect”.

In general, Tmax refers to the time from dosing to the highest level.

These data come from ChEMBL document CHEMBL5247586, “Discovery of fusidic acid derivatives as novel STING inhibitors for treatment of sepsis” (Eur J Med Chem, 2022).
